Laboratory results reported in patent US9650338B1 (priority 2016, dated 2017).

Experiments:
[1] = target: opiate receptor sites in the CNS; assay: Competitive binding to opiate receptor sites in the CNS, rat brain, 3H-Naloxone
[2] = test system: respiratory depression caused by LD50 of Promedol (Trimeperidine); assay: Antagonism of respiratory depression caused by LD50 of Promedol; details: rat, Promedol (Trimeperidine) 70 mg/kg (LD50)
[3] = test system: analgesic effects of the ED99 of morphine; assay: Antagonism of the analgesic effect of the ED99 of morphine, mechanical irritation of the tail; details: rat, under skin injection, morphine 5 mg/kg (ED99)
[4] = target: opiate receptor sites in the CNS; assay: Competitive binding to opiate receptor sites in the CNS, mouse brain; details: Brain of the mouse (Table 5, mean; spread in a separate column)

| Compound | IC50 ([1]; Brain of the rate (Table 5, mean; spread in a separate column), read-out: IC50) | IC50 ([1]; brain of the rat, 3H-Naloxone (Table 4), read-out: Affinity IC50) | Median Antagonistic activity AD50 (parenthetical is range) [2] | Median Antagonistic activity AD50 (parenthetical is range) [3] | IC50 [4] |
| --- | --- | --- | --- | --- | --- |
| CCC(=O)NC1CC(C)N(CCc2ccccc2)CC1C (stereo not shown) [N-[2,5-dimethyl-1-(2-phenylethyl)piperidin-4-yl]propanamide] | 0.12 nM | 0.12 nM | 5.1 (3.4-7.8) mg/kg | 1.2 (0.8-1.64) mg/kg | 0.1 nM |
| C=CCN1CC[C@]23c4c5ccc(O)c4O[C@H]2C(=O)CC[C@@]3(O)[C@H]1C5 [naloxone, 17-allyl-4,5a-epoxy-3,14-dihydroxymorphinan-6-one, reference compound] | – | – | 1.8 (1.1-3.2) mg/kg | 0.3 (0.22-0.39) mg/kg | – |
